In brackets after ≈: the same amount, converted by molar mass.

Data set [1] in a line: Dynamic solubility test in water. In kind it is physicochemical. To be noted: thermodynamic from solid, 100 mL water, 37° C., 200 rpm, read-out: Solubility of tacrolimus (mean ± SD). On the procedure:
The excessive specimens were loaded and appropriate aliquots were collected after 0.5, 1, 2, 4, and 8 hours, and the samples were analyzed by high performance liquid chromatography.

The conditions of data set [2]: background art; mass unit printed as an image character; cited from earlier work.

`C=CC[C@@H]1/C=C(\C)C[C@H](C)C[C@H](OC)[C@H]2O[C@@](O)(C(=O)C(=O)N3CCCC[C@H]3C(=O)O[C@H](/C(C)=C/[C@@H]3CC[C@@H](O)[C@H](OC)C3)[C@H](C)[C@@H](O)CC1=O)[C@H](C)C[C@@H]2OC` [Control, tacrolimus]: in data set [1] (1 hr), the solubility at 1 h turned out to be 0.28 ± 0.05 µg/mL (≈ 0.348 µM). Moreover, in data set [1] (2 hr), the solubility at 2 h stood at 0.68 ± 0.02 µg/mL (≈ 0.846 µM). Besides, the solubility at 4 h in data set [1] (4 hr) worked out at 0.74 ± 0.01 µg/mL (≈ 0.92 µM). Also, the solubility at 8 h in data set [1] (8 hr) amounted to 0.96 ± 0.05 µg/mL (≈ 1.19 µM). Further, in data set [2], the “Solubility of tacrolimus in water” value is given as 1˜2 /mL.

As a reminder, the solubility is how much of the substance goes into solution per volume.

These data come from patent US20080132533A1, “Solid Dispersion Comprising Tacrolimus and Entericcoated Macromolecule” (GL PharmTech Corp., priority 2005, published 2008).
